Entries after “also recorded” stand apart in the source; their conditions may differ.
Key:
Type in all cases: cell-based
HeLa cells [1] = assay: Transduction of PTD- and CTP-β-galactosidase into HeLa cells (X-gal staining after fixation); details: for transduction potential / order of transduction potentials into HeLa cells: 100 μg/ml, 1 hr; for transduction potential: fixation; for order of transduction potentials into HeLa cells: β-galactosidase fusion, X-gal staining
Excerpt: Although various other substitutions could be performed, it is essential in this invention that the introduction of a positive charge by arginine and the substitution by an α-helix stabilizing amino acid should be carried out for maintaining the principle function of the PTD peptide. Therefore, as a substitute amino acid, the positively charged amino acid is restricted to arginine, and the negatively charged amino acid is restricted to glutamic acid. β-galactosidase was fused to the CTP candidate peptide, the fusion proteins were isolated and purified (see FIG. 2), and HeLa cells were treated with each of the fusion proteins. This was then followed by an analysis of the transduction potential and a determination of the extent of the cytoplasmic remaining property.
The transduction potential of the PTD and CTP candidates was tested with HeLa cells. Using a 24-well plate (Nunc), 5×10^4 HeLa cells were inoculated into high glucose DMEM (containing 10% FBS) and cultured for 36 hr. The cells were rinsed with PBS and treated with 100 μg/ml of PTD- and CTP-β-galactosidase in an opti-MEM I medium. After 1-hr incubation, cells were fixed for 10 min at room temperature with a fixation solution (2% formaldehyde, 0.2% glutaraldehyde in PBS). Then, the cells were rinsed twice with PBS, and stained for 2 hr with dye (0.1% X-gal, 5 mM potassium ferricyanide, 5 mM potassium ferrocyanide, 2 mM MgCl2 in PBS) to examine their transduction potential (see FIG. 3). The samples showing a low level of staining, even after a 2-hr staining, were incubated overnight, and then stained for the relative transduction potential. The transduction potentials of the PTD and CTP candidates into HeLa cells were seen to be in the following order: PTD5<CTP502<<CTP501=CTP506<CTP507<CTP505<CTP503=CTP504<CTP508=CTP510=MTS<CTP509<<PTD=CTP511<<CTP512.

HeLa cells [2] = assay: Subcellular localization of CTP-β-gal by confocal scanning microscope; details: β-galactosidase fusion protein, 100 μg/ml, 1 hr
Excerpt: To select cytoplamic transduction peptides (CTPs) of interest, HeLa cells were transduced with CTP-β-galactosidase, and then examined under the confocal scanning microscope. Before the confocal analysis, cells were stained with mouse anti-β-galactosidase antibody and 2nd antibodies conjugated with FITC (Fluorescence-iso-thio-cyanate) or with PE (phycoerythrin) together with DNA staining reagent (green fluorescence SYTO-16 DNA staining dye, Molecular Probe). First, HeLa cells (5×10^5 cells/ml) were plated onto a 6-well plate containing sterilized cover-slips and cultured overnight at 37° C. CO2 incubator. The cells were washed with PBS (pH 7.4) and 1 ml of an OPTI-MEM I medium was added, followed by treatment with candidate CTP-fused proteins (100 μg/ml). As a positive control, PTD-β-galactosidase fusion protein was employed, and as a negative control, only β-galactosidase protein was used. Following the treatment with candidate CTP-β-galactosidase fusion proteins, cells were incubated for 1 hr at 37° C. incubator. The cells were rinsed three times with PBS and fixed with 2% paraformaldehyde for 20 min at 4° C. HeLa cells fixed were washed twice with washing buffer (PBS containing 0.2% BSA and 0.02% sodium azide). To stain the cells with antibody, cells were pre-treated with 0.5% Triton X-100 (in PBS, Sigma) at 4° C. for 20 min. Cells were washed three times with washing buffer and then stained with mouse anti-β-galactosidase antibody (diluted 1:2,000, Sigma) for 1 hr at 4° C. as a primary antibody and then washed three times with washing buffer. Cells were then incubated with FITC-conjugated goat anti-mouse IgG (diluted 1:2,000, Jackson Laboratory) as a secondary antibody for 20 min at 4° C. Washed 3 times with the same washing buffer, cells were fixed on a slide glass with fluorescence mounting medium (DAKO) and the edge of slide glass was sealed with nail vanish.
Double staining was carried out with SYTO-16 DNA staining dye as follows: First, the cells were incubated with the primary antibodies under the same conditions and rinsed three times. Then, the cells were incubated at 4° C. for 20 min with PE-conjugated goat anti-mouse IgG PE (diluted 1:2,000, Jackson Laboratory). Washed three times with washing buffer, cells were incubated with SYTO-16 DNA staining dye (diluted 1:1,000, DAKO) for 20 min at 4° C. Cells were fixed and sealed on a slide glass and then examined under a confocal laser scanning microscope.
In the present experiment, LEICA TCS NT SP confocal microscope (LEICA Lasertech GmbH, Heidelverg, Germany) was employed, which was equipped with lager generator of argon (Ar) and krypton (Kr), scanning device, and filter capable of detecting FITC (510–550 nm) and PE (600–660) at independent channel. Photographs were taken by PL-APO X100 objective. For single staining, the cells were sectioned into 4-layers and fluorescence and transmission photographs were taken. For double staining, FITC, PE, and transmission photographs were taken using optimal respective filter.

HeLa cells [3] = assay: Subcellular localization of CTP-FITC by confocal microscope without cell fixation; details: FITC-labeled peptide, 25 μg/ml, 1 hr
Excerpt: Fixation step is inevitable for examining the subcellular localization of the transduced β-gal in the cells with antibodies. However, according to the previous reports, the fusion protein attached to cell surface is very likely to be introduced into the cell during a cell fixation procedure, which may affect its transduction potential and its subcellular localization. However, FITC-labeled membrane permeation peptides allow its subcellular localization to be observed under a confocal microscope without cell fixation. Monolayered HeLa cells were treated for 1 hr with FITC-labeled CTP, PTD or MTS at a concentration of 25 μg/ml, and washed three times with HBSS, followed by observation under a confocal microscope without cell fixation.

[4] = β-galactosidase fusion protein, HeLa cells

Row | Substance | transduction potential (HeLa cells [1]; [4]) | order of transduction potentials into HeLa cells (HeLa cells [1]) | cytoplasmic remaining property / subcellular localization (HeLa cells [2]) | transduction potential as percentage of wild type PTD fusion protein (HeLa cells [1]; [4]) | transduction potential higher than PTD5 (HeLa cells [1]; [4]) | subcellular localization (HeLa cells [3])
1 | CTP501: CTP candidate (1P), sequence PARAARRAARR | low-potential | CTP502<<CTP501=CTP506 |  |  |  | 
2 | CTP502: CTP candidate (2P), sequence YPRAARRAARR | low-potential | PTD5<CTP502<<CTP501 |  |  |  | 
3 | CTP503: CTP candidate (2R11A), sequence YRRAARRAARA | excellent transduction potential | CTP505<CTP503=CTP504 |  |  |  | 
4 | CTP504: CTP candidate (2G), sequence YGRAARRAARR | excellent transduction potential | CTP503=CTP504<CTP508 | high cytoplasmic remaining property | 10% | 20 fold | 
5 | CTP505: CTP candidate (4E), sequence YAREARRAARR | excellent transduction potential | CTP507<CTP505<CTP503 |  |  |  | 
6 | CTP506: CTP candidate (2E4E), sequence YEREARRAARR | low-potential | CTP501=CTP506<CTP507 |  |  |  | 
7 | CTP507: CTP candidate (2K), sequence YKRAARRAARR | low-potential; also recorded: excellent transduction potential | CTP506<CTP507<CTP505 |  |  |  | 
8 | CTP508: CTP candidate (4K), sequence YARKARRAARR | excellent transduction potential; also recorded: transduction potential lower than wild type PTD; also recorded: significantly high transduction potential | CTP504<CTP508=CTP510=MTS | much stronger cytoplasmic remaining property than PTD; also recorded: much higher than the wild type PTD; also recorded: significantly high | 20% |  | observed only in the cytoplasm, and not in the nucleus
9 | CTP509: CTP candidate (2K4K), sequence YKRKARRAARR | transduction potential higher than CTP508; also recorded: transduction potential lower than wild type PTD; also recorded: significantly high transduction potential | MTS<CTP509<<PTD | much stronger cytoplasmic remaining property than PTD; also recorded: much higher than the wild type PTD; also recorded: significantly high |  |  | 
10 | CTP510: CTP candidate (2G4R), sequence YGRRARRAARR |  | CTP508=CTP510=MTS |  |  |  | 
11 | YGRKKRRQRRR [PTD, protein transduction domain of HIV-1 Tat protein, reference compound] |  | CTP509<<PTD=CTP511 |  |  |  | FITC signal only in the nucleus, but not in the cytoplasm
